Test results from patent US20240165113A1, “METHODS OF TREATMENT FOR LEUKEMIA” (DNA SEQ 2, Inc., priority 2021, published 2024).
Where two headings read alike, the source gives them in different places.

Assays:
[1] = target: T1, phosphorylated ABL1(T315I)(229-499) (Homo sapiens, UniProt P00519, T315I); assay: SPR binding to phosphorylated ABL1(T315I)(229-499); conditions: Ni-NTA capture of 10xHis-tag
T1 construct: The protocol was adapted to generate phosphorylated 10×His-tev-ABL1(T315I)(229-499) for use in the SPR studies; made in house; host or cells: E. coli; autophosphorylated in vitro with ATP/MgCl2
T1 sequence (P00519 229-499 T315I): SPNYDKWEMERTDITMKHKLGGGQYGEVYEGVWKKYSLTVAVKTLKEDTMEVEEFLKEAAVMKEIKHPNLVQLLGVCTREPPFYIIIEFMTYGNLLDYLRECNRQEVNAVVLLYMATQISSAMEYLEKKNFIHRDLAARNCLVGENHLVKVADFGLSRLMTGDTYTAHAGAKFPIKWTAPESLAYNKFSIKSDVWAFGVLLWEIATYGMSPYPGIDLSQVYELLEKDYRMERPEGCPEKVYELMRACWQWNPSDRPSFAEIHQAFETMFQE

human tumor cells = conditions: growth of human tumor cells; cited from earlier work

Question: Which results are given for Nc1nc(N)c(N=O)c(OCC2CCCCC2)n1 [A-0001, 6-Cyclohexylmethyloxy-5-nitroso-pyrimidine-2,4-diamine]?
Answer: Kd ([1]; HBST buffer, read-out: Phosphorylated ABL1(T315I)(229-499) in HBST buffer KD): 13 µM; Kd ([1]; PBST buffer, read-out: Phosphorylated ABL1(T315I)(229-499) in PBST buffer KD): 16 µM; GI50 (human tumor cells): 10 µM
